In article PMC9068772, “Discovery of first-in-class nanomolar inhibitors of heptosyltransferase I reveals a new aminoglycoside target and potential alternative mechanism of action” (Scientific Reports, 2022):
“Also recorded” adds a separate entry of the source.

Assays:
HepI = molecular target: T1, HepI (Escherichia coli, UniProt P24173); assay: Intrinsic tryptophan fluorescence of HepI; assay type: binding, E. coli K12; conditions: for Blue shift of HepI tryptophan emission λmax: HepI plus ligand alone, vs apo; for Blue shift of HepI tryptophan emission λmax with ODLA and inhibitor: inhibitor added to HepI•ODLA complex
T1 construct: made in house; host or cells: E. coli One Shot BL-21-AI
T1 sequence (P24173 whole entry): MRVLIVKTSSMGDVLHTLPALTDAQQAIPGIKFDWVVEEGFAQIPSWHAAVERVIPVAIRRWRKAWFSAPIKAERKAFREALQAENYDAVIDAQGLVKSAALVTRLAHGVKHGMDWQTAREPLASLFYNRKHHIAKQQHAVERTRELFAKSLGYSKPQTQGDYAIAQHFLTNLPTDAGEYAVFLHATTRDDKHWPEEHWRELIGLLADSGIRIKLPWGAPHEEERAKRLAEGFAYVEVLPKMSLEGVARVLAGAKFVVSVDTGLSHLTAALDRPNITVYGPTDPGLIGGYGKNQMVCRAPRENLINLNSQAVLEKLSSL
Procedure: Fluorescence spectra were measured in triplicate at room temperature using 200 μL samples containing 1 μm HepI, in a 10 mm HEPES, 50 mm KCl, and 10 mm MgCl2, pH = 7.5 buffer. Samples were contained in Starna 45-Q-3 cells (minimum volume 200 µL). Substrate and inhibitor concentrations were 100 μM. All measurements were taken using a Fluoromax-4 fluorometer with an excitation slit bandpass of 2 nm and an emission slit bandpass of 3 nm (λex = 290 nm, λem = 310–450 nm). The data was subtracted from blanks, normalized and fit to a lognormal distribution (Eq. 7)[36] to determine the emission maximum (λmax) with in house scripts written in MATLAB R2018A.7 Iλ=Imax·e^-ln2/ln^2ρ·ln^2(a-λ/a-λmax)

HepI R61A = molecular target: T2, HepI R61A (Escherichia coli, UniProt P24173, R61A); assay: HepI inhibition, ADP/NADH coupled assay (R61A mutant); assay type: biochemical, E. coli K12
T2 construct: made in house; host or cells: E. coli One Shot BL-21-AI (stated for HepI in general)
T2 sequence (P24173 whole entry R61A): as the sequence (P24173 whole entry) above, with R61A counted along it
Procedure: (§1) As previously reported[11],[14],[15], an ADP/NADH coupled assay was used to monitor HepI activity by monitoring the absorbance change at 340 nm at 37 °C on a Cary Bio 100 UV–Vis Spectrometer. Under normal conditions, the assay buffer was composed of 50 mM HEPES, 50 mM KCl, 10 mM MgCl2, pH 7.5. The coupled enzyme reaction additionally contained 100 μM phosphoenolpyruvate, 100 μM NADH, 100 μM dithiothreitol (DTT) and 0.05 U/μL of both pyruvate kinase and lactate dehydrogenase. 100 μM ADPH was used when ODLA concentration was varied and 100 μM ODLA was used when ADPH was varied. Once a stable baseline was established (~ 5 min), the reaction was initiated by addition of HepI to a final concentration of 50 nM or 100 nM (for high and lower substrate concentrations respectively) and all reported reaction rates are after background subtraction. When running 12 samples at once, plastic cuvette stirs and a repeat pipettor was used to inject 200 μL enzyme. Inhibition of HepI was monitored using the same ADP/NADH coupled assay, all conditions of the assay were the same as previously described unless otherwise stated. Ki values for each of the compounds were determined by varying compound final concentration from 100 μm to 10 nm, and a final concentration of 10 μM ODLA. Competition assays against ADPH were done with excess ODLA (100 μM) and varying ADPH from 2–0.25 μM. Competition assays against ODLA were done with excess ADPH (100 μM) and varying ODLA from 2–0.25 μM. Reactions were started with addition of enzyme and inhibitor was varied from 30–0.01 μM. Kinetics were fit to Lineweaver-Burke (Eq. 1), competitive (Eq. 2), non-competitive (Eq. 3), mixed (Eq. 4), Dixon (Eq. 5), or Cornish-Bowden (Eq. 6) models. All fitting and plotting was done through MATLAB R2018A.1 1/V1/[S]=KM/Vmax[S]+1/Vmax 2 V[S]=Vmax[S]/KM1+[I]/Ki+[S] 3 V[S]=Vmax[S]/1+([I]/Ki)/KM+[S] 4 V[S]=Vmax[S]/KM(1+[I]/Ki)+[S](1+[I]/αKi) 5 1/V[I]=KM1+I/Ki+[S]1+I/αKi/Vmax[S] 6 [S]/V[I]=KM1+I/Ki+[S]1+I/αKi/Vmax

E. coli K12 = assay: Growth challenge assay, 96-well plate; assay type: cell-based; conditions: for Inflection point in cell viability: E. coli K12, growth rate, Fig. 9; for Effect on growth of E. coli K12: increasing concentrations, 18-h period
Procedure: The assays were prepared by plating E. coli K12 onto an LB-agar plate and grown overnight (12–18 h)[60]. A colony forming unit was chosen to inoculate 10 mL of fresh LB media in a tightly capped 15 mL falcon tube and placed in an incubator (no agitation) at 37 °C for exactly 24 h to increase the number of viable cells for inoculation of the plate and thusly reproducibility in highly variable growth patterns. A 96-well plate was then filled with a variety of inhibitor concentrations taken from stock solutions made up in ultra-pure water allowing for one row to remain free of the inhibitor. Each inhibitor concentration was given 3-wells to ensure a triplicate of data is collected at once. With the same fresh media used to make the overnight culture, the overnight growths were added to the plate in a 1:1000 dilution (total volume 200 uL) and the plate sealed with clear adhesive plastic sealant. One row has been designated for uncultured media to be used for pre-blanking measurements and to ensure that the media isn’t growing spontaneously.
An experimental protocol was created using the Softmax Pro® software for a Molecular Devices Spectramax M5 plate reader. The parameters have been selected such that it collects pre-blanked absorbance readings at 600 nm wavelengths every 30 min at 37 °C with shaking every 10 min at 400 s intervals for 18 h total. Absorbance values were corrected for path length using the lateral reading path correction (8) and are plotted overtime to establish a growth curve.8 l=4×V/π×d^2 l = path length from Beer’s law ( A=εlc ), V = volume (cm^3), d = diameter of well (cm).
Data from the growth assay were analyzed using MATLAB R2018A. The derivative of the curve was calculated and the maximum rate as determined by the derivative was reported as the growth rate for that condition.

HepI R63A = molecular target: T3, HepI R63A (Escherichia coli, UniProt P24173, R63A); assay: HepI inhibition, ADP/NADH coupled assay (R63A mutant); assay type: biochemical, E. coli K12
T3 construct: made in house; host or cells: E. coli One Shot BL-21-AI (stated for HepI in general)
T3 sequence (P24173 whole entry R63A): as the sequence (P24173 whole entry) above, with R63A counted along it
Procedure: as §1

HepI K64A = molecular target: T4, HepI K64A (Escherichia coli, UniProt P24173, K64A); assay: HepI inhibition, ADP/NADH coupled assay (K64A mutant); assay type: biochemical, E. coli K12
T4 construct: made in house; host or cells: E. coli One Shot BL-21-AI (stated for HepI in general)
T4 sequence (P24173 whole entry K64A): as the sequence (P24173 whole entry) above, with K64A counted along it
Procedure: as §1

HepI R120A = molecular target: T5, HepI R120A (Escherichia coli, UniProt P24173, R120A); assay: HepI inhibition, ADP/NADH coupled assay (R120A mutant); assay type: biochemical, E. coli K12
T5 construct: made in house; host or cells: E. coli One Shot BL-21-AI (stated for HepI in general)
T5 sequence (P24173 whole entry R120A): as the sequence (P24173 whole entry) above, with R120A counted along it
Procedure: as §1

## [H]/N=C(/N)N[C@H]1[C@H](O)[C@@H](O)[C@H](O[C@@H]2O[C@@H](C)[C@](O)(C=O)[C@H]2O[C@@H]2O[C@@H](CO)[C@H](O)[C@@H](O)[C@@H]2NC)[C@@H](N/C(N)=N\[H])[C@@H]1O [Streptomycin]
HepI
  Blue shift of HepI tryptophan emission λmax: no changes to the emission spectra
  Blue shift of HepI tryptophan emission λmax with ODLA and inhibitor: unperturbed
HepI R61A
  Ki: 7.89 ± 3.59 µM
HepI R61A; Arg61Ala relative to WT
  ΔΔG (kcal/mol) Exp: 1.5 ± 0.2 kcal/mol
HepI R61A; Arg61Ala, from Ki
  ΔG (kcal/mol) Exp: -7.0 ± 0.2 kcal/mol
HepI R61A; HepI R61A in presence of inhibitor
  kcat: 0.142 ± 0.031 s⁻¹
HepI R61A; HepI R61A vs WT
  Ki relative to WT: increased the Ki values an order of magnitude
E. coli K12
  Inflection point in cell viability: 25 ng/mL
  Effect on growth of E. coli K12: challenges the growth
HepI R63A
  Ki: 6.66 ± 0.699 µM
HepI R63A; Arg63Ala relative to WT
  ΔΔG (kcal/mol) Exp: 1.4 ± 0.1 kcal/mol
HepI R63A; Arg63Ala, from Ki
  ΔG (kcal/mol) Exp: -7.1 ± 0.1 kcal/mol
HepI R63A; HepI R63A in presence of inhibitor
  kcat: 0.198 ± 0.024 s⁻¹
HepI R63A; HepI R63A vs WT
  Ki relative to WT: increased the Ki values an order of magnitude
HepI K64A
  Ki: 5.76 ± 0.485 µM
HepI K64A; HepI K64A in presence of inhibitor
  kcat: 0.117 ± 0.009 s⁻¹
HepI K64A; HepI K64A vs WT
  Ki relative to WT: increased the Ki values an order of magnitude
HepI K64A; Lys64Ala relative to WT
  ΔΔG (kcal/mol) Exp: 1.3 ± 0.1 kcal/mol
HepI K64A; Lys64Ala, from Ki
  ΔG (kcal/mol) Exp: -7.1 ± 0.1 kcal/mol

## NC[C@H]1O[C@H](O[C@H]2[C@H](O)[C@@H](O[C@H]3O[C@H](CO)[C@@H](O)[C@H](N)[C@H]3O)[C@H](N)C[C@@H]2N)[C@H](N)C[C@@H]1O [Tobramycin]
HepI
  Blue shift of HepI tryptophan emission λmax: did not alter the λmax
  Blue shift of HepI tryptophan emission λmax with ODLA and inhibitor: 6 nm
E. coli K12
  Inflection point in cell viability: around 6.5 ng/mL
  Effect on growth of E. coli K12: challenges the growth
HepI R120A
  Ki: 0.422 ± 0.186 µM
HepI R120A; Arg120Ala relative to WT
  ΔΔG (kcal/mol) Exp: -0.6 ± 0.2 kcal/mol
HepI R120A; Arg120Ala, from Ki
  ΔG (kcal/mol) Exp: -8.7 ± 0.2 kcal/mol
HepI R120A; HepI R120A vs WT
  Ki relative to WT: ~ twofold tighter; also recorded: lowering of the inhibition constant
